Experiments:
Sphingosine kinase 2 = molecular target: T1, Sphingosine kinase 2 (Homo sapiens, UniProt Q9NRA0)
T1 sequence (Q9NRA0 whole entry): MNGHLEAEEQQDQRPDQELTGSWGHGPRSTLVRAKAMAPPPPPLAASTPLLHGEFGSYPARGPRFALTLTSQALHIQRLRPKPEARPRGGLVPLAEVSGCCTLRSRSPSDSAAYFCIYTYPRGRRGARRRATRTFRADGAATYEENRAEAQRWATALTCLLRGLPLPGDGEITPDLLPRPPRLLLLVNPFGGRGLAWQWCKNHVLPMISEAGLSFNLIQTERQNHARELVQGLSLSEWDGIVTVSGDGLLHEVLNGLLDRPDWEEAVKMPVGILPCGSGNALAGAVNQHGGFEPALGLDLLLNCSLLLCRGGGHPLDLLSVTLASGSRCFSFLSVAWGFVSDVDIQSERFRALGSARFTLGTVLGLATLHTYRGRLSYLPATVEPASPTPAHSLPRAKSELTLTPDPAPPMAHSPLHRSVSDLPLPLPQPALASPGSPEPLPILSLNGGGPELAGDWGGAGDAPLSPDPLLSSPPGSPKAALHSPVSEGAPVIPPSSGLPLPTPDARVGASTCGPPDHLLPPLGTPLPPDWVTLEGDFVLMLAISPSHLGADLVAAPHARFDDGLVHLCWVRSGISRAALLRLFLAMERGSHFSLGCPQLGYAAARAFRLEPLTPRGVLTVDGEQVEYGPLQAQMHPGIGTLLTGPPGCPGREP

[1] = Tmax in mouse at 20 mg/kg, po; assay type: ADME, organism-based; conditions: in vivo
[2] = Cmax in mouse at 20 mg/kg, po; assay type: ADME, organism-based; design: dose 20 mg/kg, route po; conditions: in vivo
[3] = AUClast in mouse at 20 mg/kg, po; assay type: ADME, organism-based; design: time 0 - last, dose 20 mg/kg, route po; conditions: in vivo
[4] = AUClast in mouse at 2 mg/kg, iv; assay type: ADME, organism-based; design: time 0 - last, dose 2 mg/kg, route iv; conditions: in vivo
[5] = Half life in mouse at 20 mg/kg, po; assay type: ADME, organism-based; conditions: in vivo
[6] = Half life in mouse at 2 mg/kg, iv; assay type: ADME, organism-based; conditions: in vivo
[7] = Clearance in mouse at 2 mg/kg, iv; assay type: ADME, organism-based; conditions: in vivo
[8] = Oral bioavailability in mouse at 20 mg/kg; assay type: ADME, organism-based; conditions: in vivo

Row | IC50 (Sphingosine kinase 2) | Tmax [1] | Cmax [2] | AUC(0-t) [3] | AUC(0-t) [4] | half-life [5] | half-life [6] | clearance [7] | bioavailability [8] | Structure (SMILES)
1 | > 10 µM |  |  |  |  |  |  |  |  | Cc1cc(CS(=O)(=O)c2ccc([N+](=O)[O-])cc2)cc(OCc2ccc(CN3CCC[C@@H]3CO)cc2)c1
2 | > 10 µM | 15 min | 83.6 ng/mL | 100 ng·h/mL | 201 ng·h/mL | 107 min | 107 min | 164 mL/min/kg | 4.95% | Cc1cc(CS(=O)(=O)C2CC2)cc(OCc2ccc(CN3CCC[C@@H]3CO)cc2)c1
